In the NIST ThermoML archive (doi:10.1021/je700145e):

Conditions: Liquid

CCCCCCCCCCO [decan-1-ol]
Conditions	mass density [kg/m3]
313.12 K, 1025 kPa	816.79
313.12 K, 2002 kPa	817.46
313.12 K, 2995 kPa	817.98
313.12 K, 4013 kPa	818.58
313.12 K, 5004 kPa	819.21
313.12 K, 5994 kPa	819.86
313.12 K, 7003 kPa	820.47
313.12 K, 7997 kPa	821.19
313.12 K, 9000 kPa	821.73
313.12 K, 9994 kPa	822.38
313.12 K, 10995 kPa	823.02
313.12 K, 11995 kPa	823.67
313.12 K, 12997 kPa	824.2
313.12 K, 13996 kPa	824.82
313.12 K, 14998 kPa	825.42
313.12 K, 15990 kPa	826.01
313.12 K, 16995 kPa	826.61
313.12 K, 17986 kPa	827.14
313.12 K, 18992 kPa	827.76
313.12 K, 19993 kPa	828.31
313.12 K, 20999 kPa	828.88
313.12 K, 21509 kPa	829.19
323.09 K, 1002 kPa	809.87
323.09 K, 2011 kPa	810.59
323.09 K, 3019 kPa	811.21
323.09 K, 4014 kPa	811.83
323.09 K, 5006 kPa	812.47
323.09 K, 6012 kPa	813.18
323.09 K, 7002 kPa	813.8
323.09 K, 8003 kPa	814.42
323.09 K, 9008 kPa	815.1
323.09 K, 10006 kPa	815.7
323.09 K, 11000 kPa	816.38
323.09 K, 12002 kPa	816.97
323.09 K, 13002 kPa	817.64
323.09 K, 14000 kPa	818.21
323.09 K, 15017 kPa	818.84
323.09 K, 16003 kPa	819.4
323.09 K, 17015 kPa	820.02
323.09 K, 18006 kPa	820.61
323.09 K, 19007 kPa	821.24
323.09 K, 20007 kPa	821.84
323.09 K, 21002 kPa	822.41
323.09 K, 22014 kPa	823.01
333.04 K, 1046 kPa	802.82
333.04 K, 2018 kPa	803.5
333.04 K, 3008 kPa	804.21
333.04 K, 4012 kPa	804.88
333.04 K, 5059 kPa	805.62
333.04 K, 6016 kPa	806.29
333.04 K, 7022 kPa	807
333.04 K, 8014 kPa	807.64
333.04 K, 9015 kPa	808.34
333.04 K, 10015 kPa	808.97
333.04 K, 11019 kPa	809.64
333.04 K, 12007 kPa	810.31
333.04 K, 13019 kPa	810.96
333.04 K, 14019 kPa	811.6
333.04 K, 15014 kPa	812.24
333.04 K, 16021 kPa	812.88
333.04 K, 17026 kPa	813.5
333.04 K, 18023 kPa	814.11
333.04 K, 19018 kPa	814.72
333.04 K, 20025 kPa	815.35
333.04 K, 21020 kPa	815.94
333.04 K, 22032 kPa	816.58
342.98 K, 1058 kPa	795.63
342.98 K, 2045 kPa	796.4
342.98 K, 3022 kPa	797.12
342.98 K, 4035 kPa	797.9
342.98 K, 5028 kPa	798.63
342.98 K, 6030 kPa	799.37
342.98 K, 7023 kPa	800.07
342.98 K, 8028 kPa	800.78
342.98 K, 9062 kPa	801.51
342.98 K, 10035 kPa	802.22
342.98 K, 11029 kPa	802.92
342.98 K, 12064 kPa	803.64
342.98 K, 13023 kPa	804.31
342.98 K, 14042 kPa	805
342.98 K, 15022 kPa	805.66
342.98 K, 16022 kPa	806.36
342.98 K, 17021 kPa	807
342.98 K, 18034 kPa	807.7
342.98 K, 19025 kPa	808.35
342.98 K, 20038 kPa	808.98
342.98 K, 21018 kPa	809.62
342.98 K, 22035 kPa	810.28
352.86 K, 1069 kPa	788.44
352.86 K, 2043 kPa	789.24
352.86 K, 3040 kPa	790.04
352.86 K, 4048 kPa	790.78
352.86 K, 5038 kPa	791.59
352.86 K, 6043 kPa	792.34
352.86 K, 7038 kPa	793.09
352.86 K, 8039 kPa	793.84
352.86 K, 9040 kPa	794.57
352.86 K, 10038 kPa	795.32
352.86 K, 11032 kPa	796.04
352.86 K, 12032 kPa	796.74
352.86 K, 13040 kPa	797.47
352.86 K, 14046 kPa	798.18
352.86 K, 15043 kPa	798.89
352.86 K, 16037 kPa	799.59
352.86 K, 17040 kPa	800.26
352.86 K, 18046 kPa	800.95
352.86 K, 19040 kPa	801.63
352.86 K, 20064 kPa	802.32
352.86 K, 21048 kPa	802.96
352.86 K, 22049 kPa	803.62
362.89 K, 1077 kPa	781.02
362.89 K, 2027 kPa	781.83
362.89 K, 3089 kPa	782.69
362.89 K, 4047 kPa	783.49
362.89 K, 5061 kPa	784.29
362.89 K, 6060 kPa	785.12
362.89 K, 7041 kPa	785.91
362.89 K, 8049 kPa	786.7
362.89 K, 9049 kPa	787.47
362.89 K, 10052 kPa	788.25
362.89 K, 11045 kPa	788.99
362.89 K, 12044 kPa	789.75
362.89 K, 13054 kPa	790.54
362.89 K, 14053 kPa	791.25
362.89 K, 15052 kPa	792
362.89 K, 16056 kPa	792.77
362.89 K, 17063 kPa	793.47
362.89 K, 18062 kPa	794.2
362.89 K, 19062 kPa	794.91
362.89 K, 20068 kPa	795.64
362.89 K, 21072 kPa	796.35
362.89 K, 22063 kPa	797.03
